Results taken from US8962596B2 (Array BioPharma Inc., priority 2010, dated 2015).

What was measured:
Format in all cases: biochemical
Human Tyk2 kinase domain = target: T1, Human Tyk2 kinase domain (Homo sapiens, UniProt P29597); test: Tyk2 Inhibition Assay (Omnia kinase fluorescence peptide substrate assay); details: averaged IC50 ranges; assay of Example A; 10 μM (Km app) or 1 mM ATP, 2 nM Tyk2
T1 construct: comprising amino acids 886 to 1187 with 10 additional histidine residues; 10xHis (histidine tag) (C, cleaved yes); made in house
T1 sequence (P29597 886-1187): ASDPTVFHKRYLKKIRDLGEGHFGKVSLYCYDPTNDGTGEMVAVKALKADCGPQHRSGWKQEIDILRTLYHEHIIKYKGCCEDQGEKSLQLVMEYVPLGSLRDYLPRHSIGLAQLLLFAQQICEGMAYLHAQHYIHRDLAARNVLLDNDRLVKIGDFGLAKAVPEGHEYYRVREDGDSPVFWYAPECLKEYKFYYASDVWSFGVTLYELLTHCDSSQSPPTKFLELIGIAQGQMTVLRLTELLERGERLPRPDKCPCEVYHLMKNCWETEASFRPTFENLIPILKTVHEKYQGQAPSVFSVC
Summary of the method: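 2 nM His-tag-cleaved kinase domain (aa 886–1187) with 8 μM Omnia Y12 peptide, 10 μM (Km app) or 1 mM ATP, pH 7.4 HEPES/10 mM MgCl2, 2% DMSO. Fluorescence (ex 360/em 485 nm) every 50 s for 45 min; IC50 from 4-parameter fit of POC, top dose 10 μM.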

JAK1 = target: T2, JAK1 (Homo sapiens, UniProt P23458); test: JAK1 Inhibition Assay (Omnia kinase fluorescence peptide substrate assay); details: averaged IC50 ranges; assay of Example B; 40 μM (Km app) or 1 mM ATP, 15 nM JAK1
T2 construct: purchased Invitrogen Corporation, Carlsbad, Calif; PV4775

JAK2 = target: T3, JAK2 (Homo sapiens, UniProt O60674); test: JAK2 Inhibition Assay (Omnia kinase fluorescence peptide substrate assay); details: averaged IC50 ranges; assay of Example C; 25 μM (Km app) or 1 mM ATP, 5 nM JAK2
T3 construct: purchased Invitrogen Corporation, Carlsbad, Calif; PV4288
Summary of the method: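 A 10-point, 3-fold compound series (top 10 μM, 2% DMSO) was tested against 5 nM JAK2 with 10 μM Omnia Y7 substrate and either 1 mM or 25 μM (Km app) ATP. Buffer: pH 7.4 HEPES, MgCl2, Triton X-100, DTT. Sox fluorescence was monitored kinetically for 45 min; IC50 is the concentration giving 50 POC on a 4-parameter fit.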

JAK3 = target: T4, JAK3 (Homo sapiens, UniProt P52333); test: JAK3 Inhibition Assay (Omnia kinase fluorescence peptide substrate assay); details: averaged IC50 ranges; assay of Example D; 10 μM (Km app) or 1 mM ATP, 2.5 nM JAK3
T4 construct: purchased Invitrogen Corporation, Carlsbad, Calif; PV4080
T4 sequence (P52333 1-1124): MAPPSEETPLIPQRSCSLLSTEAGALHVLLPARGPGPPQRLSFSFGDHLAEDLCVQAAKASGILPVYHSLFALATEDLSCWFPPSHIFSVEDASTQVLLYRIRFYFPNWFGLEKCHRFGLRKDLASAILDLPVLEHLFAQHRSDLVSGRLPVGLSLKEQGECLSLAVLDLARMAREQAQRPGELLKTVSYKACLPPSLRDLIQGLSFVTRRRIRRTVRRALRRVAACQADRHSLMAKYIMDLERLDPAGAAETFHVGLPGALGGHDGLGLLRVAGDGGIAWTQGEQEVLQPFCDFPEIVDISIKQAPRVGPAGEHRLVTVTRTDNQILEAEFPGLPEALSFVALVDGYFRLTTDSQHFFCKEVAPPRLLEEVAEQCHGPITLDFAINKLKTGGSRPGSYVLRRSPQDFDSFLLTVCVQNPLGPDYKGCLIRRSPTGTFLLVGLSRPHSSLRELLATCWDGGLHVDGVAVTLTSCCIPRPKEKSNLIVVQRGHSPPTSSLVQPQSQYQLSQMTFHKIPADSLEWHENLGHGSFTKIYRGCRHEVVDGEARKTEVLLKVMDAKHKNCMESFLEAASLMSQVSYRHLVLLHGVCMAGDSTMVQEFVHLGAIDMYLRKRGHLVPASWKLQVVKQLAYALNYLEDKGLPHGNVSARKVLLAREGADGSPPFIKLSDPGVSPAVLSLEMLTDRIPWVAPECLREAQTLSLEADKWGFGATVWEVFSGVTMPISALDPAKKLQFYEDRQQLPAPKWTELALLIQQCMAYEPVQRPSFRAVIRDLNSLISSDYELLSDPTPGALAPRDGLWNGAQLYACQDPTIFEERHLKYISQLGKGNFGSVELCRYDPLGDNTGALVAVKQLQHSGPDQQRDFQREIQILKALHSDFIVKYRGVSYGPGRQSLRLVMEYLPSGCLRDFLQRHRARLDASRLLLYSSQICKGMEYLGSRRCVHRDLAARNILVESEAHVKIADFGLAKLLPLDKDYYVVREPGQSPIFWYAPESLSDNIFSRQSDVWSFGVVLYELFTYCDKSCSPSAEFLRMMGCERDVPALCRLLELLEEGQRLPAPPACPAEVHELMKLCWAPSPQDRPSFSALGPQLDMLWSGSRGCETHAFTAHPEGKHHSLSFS
Summary of the method: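 Kinase at 2.5 nM with 10 µM Omnia Y7 peptide and 10 µM (Km app) or 1 mM ATP in 25 mM HEPES pH 7.4, 10 mM MgCl2, 1 mM DTT, 0.01% Triton X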

T2 sequence (P23458 whole entry): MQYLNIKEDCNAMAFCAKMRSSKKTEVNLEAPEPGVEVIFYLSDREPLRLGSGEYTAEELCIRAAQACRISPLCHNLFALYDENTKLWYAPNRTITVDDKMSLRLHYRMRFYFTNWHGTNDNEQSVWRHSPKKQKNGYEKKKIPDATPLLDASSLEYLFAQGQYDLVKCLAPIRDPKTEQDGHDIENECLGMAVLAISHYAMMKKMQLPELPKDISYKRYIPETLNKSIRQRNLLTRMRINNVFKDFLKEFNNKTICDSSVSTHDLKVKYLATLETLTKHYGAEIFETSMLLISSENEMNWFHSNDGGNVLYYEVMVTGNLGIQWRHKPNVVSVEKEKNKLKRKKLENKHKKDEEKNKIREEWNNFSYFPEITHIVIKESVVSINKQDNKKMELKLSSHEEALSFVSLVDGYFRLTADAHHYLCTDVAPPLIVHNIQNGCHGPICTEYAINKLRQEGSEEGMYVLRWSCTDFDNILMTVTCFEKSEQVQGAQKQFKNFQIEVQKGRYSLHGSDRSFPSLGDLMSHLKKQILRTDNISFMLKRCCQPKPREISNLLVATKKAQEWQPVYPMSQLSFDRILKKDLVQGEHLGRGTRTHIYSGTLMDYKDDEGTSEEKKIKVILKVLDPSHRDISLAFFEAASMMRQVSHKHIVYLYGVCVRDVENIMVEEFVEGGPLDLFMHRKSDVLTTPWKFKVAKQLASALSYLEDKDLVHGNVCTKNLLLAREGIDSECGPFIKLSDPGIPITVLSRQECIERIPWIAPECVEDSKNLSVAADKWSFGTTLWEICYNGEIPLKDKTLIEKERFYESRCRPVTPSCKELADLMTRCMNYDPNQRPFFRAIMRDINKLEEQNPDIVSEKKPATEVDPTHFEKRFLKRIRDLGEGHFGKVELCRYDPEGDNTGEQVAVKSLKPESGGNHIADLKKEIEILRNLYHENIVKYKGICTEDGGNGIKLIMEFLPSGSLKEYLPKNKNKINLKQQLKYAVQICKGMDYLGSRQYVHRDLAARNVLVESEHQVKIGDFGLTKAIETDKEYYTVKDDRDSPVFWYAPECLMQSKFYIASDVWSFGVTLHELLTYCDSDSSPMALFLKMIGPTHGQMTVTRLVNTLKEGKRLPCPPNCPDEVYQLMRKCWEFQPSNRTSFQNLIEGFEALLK
T3 sequence (O60674 whole entry): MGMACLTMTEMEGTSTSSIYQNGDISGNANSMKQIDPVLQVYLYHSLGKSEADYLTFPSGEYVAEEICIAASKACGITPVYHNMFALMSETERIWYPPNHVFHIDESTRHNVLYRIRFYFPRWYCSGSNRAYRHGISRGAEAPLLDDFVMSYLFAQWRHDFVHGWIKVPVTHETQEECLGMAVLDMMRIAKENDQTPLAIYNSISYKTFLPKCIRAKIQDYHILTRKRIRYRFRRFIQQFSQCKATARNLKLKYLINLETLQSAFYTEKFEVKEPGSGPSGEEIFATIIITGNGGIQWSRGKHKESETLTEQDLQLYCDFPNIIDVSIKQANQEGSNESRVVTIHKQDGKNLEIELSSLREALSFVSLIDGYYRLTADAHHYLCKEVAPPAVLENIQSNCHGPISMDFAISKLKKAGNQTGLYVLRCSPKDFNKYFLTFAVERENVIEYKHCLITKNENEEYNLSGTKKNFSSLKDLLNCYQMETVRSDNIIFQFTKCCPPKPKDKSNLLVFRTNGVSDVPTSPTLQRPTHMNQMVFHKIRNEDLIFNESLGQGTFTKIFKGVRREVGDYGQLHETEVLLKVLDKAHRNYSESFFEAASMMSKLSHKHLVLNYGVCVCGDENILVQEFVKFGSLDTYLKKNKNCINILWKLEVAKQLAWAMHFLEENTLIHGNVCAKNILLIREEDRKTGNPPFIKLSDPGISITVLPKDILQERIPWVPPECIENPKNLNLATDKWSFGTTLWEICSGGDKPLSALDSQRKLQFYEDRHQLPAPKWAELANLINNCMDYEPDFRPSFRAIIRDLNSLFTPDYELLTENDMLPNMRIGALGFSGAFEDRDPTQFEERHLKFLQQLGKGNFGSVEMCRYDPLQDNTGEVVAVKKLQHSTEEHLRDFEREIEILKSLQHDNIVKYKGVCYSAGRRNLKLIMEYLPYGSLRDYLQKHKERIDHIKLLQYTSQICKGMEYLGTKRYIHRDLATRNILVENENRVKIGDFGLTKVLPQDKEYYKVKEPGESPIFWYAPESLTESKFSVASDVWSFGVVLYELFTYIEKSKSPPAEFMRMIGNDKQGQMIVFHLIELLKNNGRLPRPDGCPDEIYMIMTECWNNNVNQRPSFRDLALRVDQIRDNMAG

SMILES	IC50 (Human Tyk2 kinase domain) [nM]	IC50 (JAK1) [nM]	IC50 (JAK2) [nM]	IC50 (JAK3) [nM]
Cn1cc(-c2cc3nccn3c(-c3cnn(C4(CC#N)CN(S(=O)(=O)CCC(F)(F)F)C4)c3)n2)cn1 [Example 98, 2-(3-(4-(7-(1-methyl-1H pyrazol-4-yl)imidazo[1,2-c]pyrimidin-5-yl)-1H-pyrazol-1-yl)-1-(3,3,3-trifluoropropylsulfonyl)azetidin-3-yl)acetonitrile]	< 10	100 to 1000	10 to 100	> 1000
Cn1cc(-c2cc3nccn3c(-c3cnn(C4(CC#N)CN(S(=O)(=O)c5ccccc5)C4)c3)n2)cn1 [Example 99, 2-(3-(4-(7-(1-methyl-1H-pyrazol-4-yl)imidazo[1,2-c]pyrimidin-5-yl)-1H-pyrazol-1-yl)-1-(phenylsulfonyl)azetidin-3-yl)acetonitrile]	10 to 100	100 to 1000	100 to 1000	> 1000
CC(C)n1cc(-c2cc3nccn3c(-c3cnn(C4(CC#N)CN(CC(F)(F)F)C4)c3)n2)cn1 [Example 100, 2-(3-(4-(7-(1-Isopropyl-1-H-pyrazol-4-yl)imidazo[1,2-c]pyrimidin-5-yl)-1H-pyrazol-1-yl)-1-(2,2,2-trifluoroethyl)azetidin-3-yl)acetonitrile]	< 10	100 to 1000	10 to 100	> 1000
CC(C)n1cc(-c2cc3nccn3c(-c3cnn(C4(CC#N)CN(S(=O)(=O)C(F)(F)F)C4)c3)n2)cn1 [Example 101, 2-(3-(4-(7-(1-Isopropyl-1H-pyrazol-4-yl)imidazo[1,2-c]pyrimidin-5-yl)-1H-pyrazol-1-yl)-1-(trifluoromethylsulfonyl)azetidine-3-yl)acetonitrile]	< 10	< 10	< 10	100 to 1000
Cc1ncc(-c2cc3nccn3c(-c3cnn(C4(CC#N)CN(CC(F)(F)F)C4)c3)n2)s1 [Example 102, 2-(3-(4-(7-(2-Methylthiazol-5-yl)imidazo[1,2-c]pyrimidin-5-yl)-1H-pyrazol-1-yl)-1-(2,2,2-trifluoroethyl)azetidin-3-yl)acetonitrile]	10 to 100	100 to 1000	100 to 1000	> 1000
N#CCC1(n2cc(-c3nc(-c4cnn(C5CCC5)c4)cc4nccn34)cn2)CN(CC(F)(F)F)C1 [Example 103, 2-(3-(4-(7-(1-Cyclobutyl-1H-pyrazol-4-yl)imidazo[1,2-c]pyrimidin-5-yl)-1H-pyrazol-1-yl)-1-(2,2,2-trifluoroethyl)azetidin-3-yl)acetonitrile]	< 10	10 to 100	10 to 100	100 to 1000
CCn1cc(-c2cc3nccn3c(-c3cnn(C4(CC#N)CN(CC(F)(F)F)C4)c3)n2)cn1 [Example 104, 2-(3-(4-(7-(1-Ethyl-1H-pyrazol-4-yl)imidazo[1,2-c]pyrimidin-5-yl)-1H-pyrazol-1-yl)-1-(2,2,2-trifluoroethyl)azetidin-3-yl)acetonitrile]	< 10	100 to 1000	10 to 100	> 1000
N#CCC1(n2cc(-c3nc(-c4cnn(C5COC5)c4)cc4nccn34)cn2)CN(CC(F)(F)F)C1 [Example 105, 2-(3-(4-(7-(1-(Oxetan-3-yl)-1H-pyrazol-4-yl)imidazo[1,2-c]pyrimidin-5-yl)-1H-pyrazol-1-yl)-1-(2,2,2-trifluoroethyl)azetidin-3-yl)acetonitrile]	< 10	100 to 1000	10 to 100	> 1000
Cc1nn(CCC#N)cc1-c1nc(-c2cnn(C)c2)cc2nccn12 [Example 106, 3-(3-methyl-4-(7-(1-methyl-1H-pyrazol-4-yl)imidazo[1,2-c]pyrimidin-5-yl)-1H-pyrazol-1-yl)propanenitrile]	100 to 1000	> 1000	100 to 1000	> 1000
Cc1c(-c2nc(-c3cnn(C)c3)cc3nccn23)cnn1CCC#N [Example 107, 3-(5-methyl-4-(7-(1-methyl-1H-pyrazol-4-yl)imidazo[1,2-c]pyrimidin-5-yl)-1H-pyrazol-1-yl)propanenitrile]	100 to 1000	> 1000	> 1000	> 1000
Cc1nn(C2(CC#N)CN(CC(F)(F)F)C2)cc1-c1nc(-c2cnn(C)c2)cc2nccn12 [Example 108, 2-(3-(3-methyl-4-(7-(1-methyl-1H-pyrazol-4-yl)imidazo[1,2-c]pyrimidin-5-yl)-1H-pyrazol-1-yl)-1-(2,2,2-trifluoroethyl)azetidin-3-yl)acetonitrile]	10 to 100	> 1000	100 to 1000	> 1000
Cc1nn(C(CC#N)C2CC2)cc1-c1nc(-c2cnn(C)c2)cc2nccn12 (stereo not shown) [Example 109, 3-Cyclopropyl-3-(3-methyl-4-(7-(1-methyl-1H-pyrazol-4-yl)imidazo[1,2-c]pyrimidin-5-yl)-1H-pyrazol-1-yl)propanenitrile]	10 to 100	> 1000	100 to 1000	> 1000
CN1CCC(c2ccc(-c3cc4nccn4c(-c4cnn(C(CC#N)C5CCCC5)c4)n3)cc2)CC1 (stereo not shown) [Example 110, 3-Cyclopentyl-3-(4-(7-(4-(1-methylpiperidin-4-yl)phenyl)imidazo[1,2-c]pyrimidin-5-yl)-1H-pyrazol-1-yl)propanenitrile]	< 10	10 to 100	10 to 100	100 to 1000
N#CCC(C1CCCC1)n1cc(-c2nc(-c3ccc(N4CCOCC4)cc3)cc3nccn23)cn1 (stereo not shown) [Example 113, 3-Cyclopentyl-3-(4-(7-(4-morpholinophenyl)imidazo[1,2-c]pyrimidin-5-yl)-1H-pyrazol-1-yl)propanenitrile]	< 10	10 to 100	10 to 100	100 to 1000
CC(C)(CC#N)n1cc(-c2nc(-c3ccc(N4CCOCC4)cc3)cc3nccn23)cn1 [Example 116, 3-methyl-3-(4-(7-(4-morpholinophenyl)imidazo[1,2-c]pyrimidin-5-yl)-1H-pyrazol-1-yl)butanenitrile]	10 to 100	100 to 1000	100 to 1000	> 1000
N#CCC(C1CC1)n1cc(-c2nc(-c3ccc(N4CCOCC4)cc3)cc3nccn23)cn1 (stereo not shown) [Example 117, 3-cyclopropyl-3-(4-(7-(4-morpholinophenyl)imidazo[1,2-c]pyrimidin-5-yl)-1H-pyrazol-1-yl)propanenitrile]	< 10	10 to 100	10 to 100	100 to 1000
